This is an account of results in patent US9290551B2, “Compounds for treating papilloma virus infection” (NanoVir, LLC, priority 2012, dated 2016).

Where two headings read alike, the source gives them in different places.

Data set [1] relates to HPV 16. In words: HPV 16 episome DNA levels in W12E cells by Q-PCR (Taqman). The format is cell-based, Human papilloma virus. The note with it: for effect on HPV viral DNA: comparison of 1037, distamycin A and cidofovir, FIG. 5; for effect on absolute HPV 16 DNA levels: higher doses, in some experiments, FIG. 3. (Quantitative PCR measures a nucleic acid by following its amplification.)

Another data set is described as follows: MTT cell viability assay. The note with it: human, keratinocytes that maintain HPV 16 episomes. Here is the method:
(§1) Cells were cultured for 5 days in the presence of polyamide; % Cell Viability=(OD590 drug/OD590 control)×100; n=3.
(§2) Solubilisation of the cells by the addition of a detergent results in the liberation of the crystals which are solubilized. The number of surviving cells is directly proportional to the level of the formazan product created. The color can then be quantified using a simple colorimetric assay. The results can be read on a multiwell scanning spectrophotometer (ELISA reader).
(§3) Cell viability was also assessed routinely with the MTT assay.
Background: Tetrazolium dyes change colour on reduction, which living cells bring about.

Data set [2] concerns Keratinocytes that maintain HPV 16 episomes. In words: MTT cell viability assay. The note with it: MTT assay; FIG. 2B, FIG. 5. As to the method:
as §1, §2, §3

A further data set concerns HPV episomal DNA. The experiment in a line: Southern blot of HPV episomal DNA. The note with it: 1 μM and 10 μM; FIG. 4. The format is cell-based, Human papilloma virus. As to the method: Several alternative approaches have been used to confirm the effects of our compounds on viral DNA. […] DMSO is the vehicle control; HPV DNA indicates the linearized HPV DNA used to generate the hybridization probe via random primed labeling with DIG-dUTP (Roche); following hybridization, blot was incubated with anti-DIG-AP conjugate and HPV DNA detected using ECF substrate (Amersham) and Storm phosphorimager. […] Other NV compounds have similarly shown the expected decrease in viral DNA by Southern blotting.

The test system of another data set is HPV31. In words: HPV31 DNA levels in keratinocytes by real-time PCR. The note with it: effective (pseudo) IC50. In kind it is cell-based, Human papilloma virus. Here is the method: (§4) Human keratinocytes, including those maintaining HPV episomes, are cultured on mitomycin C-treated J2 3T3 cells in media containing three parts Dulbecco's modified Eagle medium (DMEM) and one part F12 media, our modification of published methods (Rheinwald and Green, 1975). Media (E Media) is supplemented with 0.4 μg/mL hydrocortisone, 10 ng/mL cholera toxin, 5 μg/mL insulin, 24 μg/mL adenine, 5 μg/mL transferrin, […] (T3), 10 ng/mL epidermal growth factor (EGF), 1% penicillin-streptomycin, and 5% fetal bovine serum (FBS). All cells are passaged at 70% confluency at a split ratio of 1:5.
(§5) Polyamides for HPV 18 are dissolved at 10 mM in 100% DMSO and diluted with H2O to 1 mM. Polyamides are added to cells in E media at final concentrations of 0.1-10 μM, with final DMSO concentrations of 0.1%. As controls, cells are incubated with normal E media and E media containing the “vehicle” 0.1% DMSO. The HPV DNA levels are then quantified according to previously published procedures (Garner-Hamrick and Fisher, Virology, 301, 334-41, 2002). After incubation, cells are harvested from the plates by either trypsinization or direct lysis with proteinase K digestion buffer (PK buffer: 100 mM NaCl, 10 mM Tris pH 8, 25 mM EDTA, 0.5% SDS, 0.1 mg/mL proteinase K). Trypsinized cells are counted on a hemocytometer and pelleted by centrifugation. Episomal HPV is isolated by the Hirt method (Hirt, 1967) and cell pellets are lysed in 0.6% SDS with 10 mM EDTA. NaCl is next added to a final concentration of 1 M. Following an overnight incubation at 4° C., precipitates containing the chromosomal DNA are spun down and episomal DNA precipitated by the addition of isopropanol. Cells lysed directly in PK buffer are transferred to microfuge tubes and incubated at 50° C. for 2 h. Lysates are then extracted with phenol/chloroform/isoamyl alcohol and spun through a phase lock gel (Eppendorf, Hamburg, Germany). Total DNA is then precipitated with 0.3 M NaOAc and 2.5 vol. ethanol and resuspended in Tris-EDTA (TE) buffer.
HPV31 primers-probe sets for PCR were also designed within the L1 gene:
(§6) All primers and probes are synthesized and HPLC purified by Applied Biosystems (Foster City, Calif.). The HPV probes are labeled with the 5′ reporter dye FAM (6-carboxy-fluorescein) and the 3′ quencher dye TAMRA (6-carboxytetramethyl-rhodamine). A standard curve is generated using a range of 10^8 to 10 copies/reaction of cloned, genomic HPV31 or HPV18 DNA using the following formula: (1.82×10^15)(μg/μL stock DNA)/(length in base pairs)(2)=copies/μL stock DNA. PCR reactions contain final concentrations of 1× Universal Master Mix (PE Applied Biosystems), 200 nM of each primer, and 250 nM probe (PE Applied Biosystems) in a reaction volume of 25 μL. Each Hirt-isolated DNA sample is analyzed in triplicate reactions for episomal HPV. Copies/reaction are determined from the standard curve, and copies/cell determined according to the following formula: (copies/reaction)×(DNA dilution)/(total # cells)=copies/cell.

Data set [3] has as its system HPV 16. In words: HPV 16 episome DNA levels in W12E cells by Q-PCR (Taqman). The format is cell-based, Human papilloma virus. The note with it: 10 μM, drug washed out on day 17, sub-cultured without drug for 2 weeks; FIG. 7.
Data set [4] has as its system rat hepatoma cells (H4IIE). The format is cell-based. Here is the method: (§7) Toxicity testing has been carried out for 3 separate polyamides. Two different Rat hepatoma assays were used because they are industry standards for predicting in vivo toxicity. The assays for ATP and membrane integrity assays are described in detail below. Thus, rat hepatoma cells (H4IIE) were seeded into 96-well plates and cultured in medium containing 20% bovine serum. Following an equilibration period of 48 hr, the cells were treated with the test compounds at various concentrations for 24 hr at 37° C. in 5% CO2. Polyamide compounds were tested for toxicity in the two separate assays. A TC50 (concentration needed to kill half of the cells) was not achieved for any polyamides tested over the wide concentration range explored.

The next data set deals with HPV18. The experiment in a line: HPV18 DNA levels in keratinocytes by real-time PCR. The format is cell-based, Human papilloma virus. The note with it: effective (pseudo) IC50. Here is the method: as §4, §5
Viral DNA levels are next quantified according to variations on our previously published methods (Garner-Hamrick and Fisher, Virology, 301, 334-41, 2002). Quantitative PCR is performed using Real-Time PCR technology on an ABI PRISM 7700 Sequence Detector. All primers and probes were designed using Primer Express 1.0 (ABI). For HPV 18, PCR primer-probe sets were designed within the L1 gene:
as §6

Data set [5] in a line: Membrane integrity / modified propidium iodide procedure. In kind it is cell-based. The note with it: rat, membrane integrity assay, read-out: TC50. As to the method:
as §7
A modified propidium iodide (PI) procedure was used to assess cell proliferation/viability. This specific nucleic acid binding dye fluoresces when intercalated within the nucleic acids. The […] enhances PI fluorescence approximately 20 times while the excitation maxima are shifted 30-40 ηm. During method development experiments, it was determined that Triton-X-100 was the best solution to permeabilize the H4IIE cells thereby allowing the PI access to intracellular RNA and DNA. Fluorescence was measured using a Packard Fusion plate reader at 540 ηm excitation and 610 nm emission.

Setting [6] is: effective (pseudo) IC50, 50% reduction in HPV DNA relative to vehicle (0.1% DMSO), read-out: HPV-16 IC50.

With `Nc1ccn(C[C@@H](CO)OCP(=O)(O)O)c(=O)n1` [Cidofovir, reference compound], the “loss of total HPV DNA content” value in the data set with HPV 16 [1] (72 hours, only at very high concentrations, FIG. 1) is listed as “approximately 40%”. The “selectivity index (SI: ratio of IC50 to TD50)” value in the data set with HPV 16 [1] (cell culture) came to 2.5. Also, the “effect on HPV viral DNA” value in the data set on HPV 16 [1] is listed as “only effective against HPV DNA at high concentrations”. The same compound gave a CC50 in the data set “MTT cell viability assay” of 750 µM. For the same compound, the “effect on cell viability” value in data set [2] is given as “also affect cell viability”.

Take `CN(CCCN)CCCNC(=O)CCNC(=O)c1cc(NC(=O)c2cc(NC(=O)c3cc(NC(=O)CCNC(=O)c4cc(NC(=O)c5cc(NC(=O)c6cc(NC(=O)[C@H](N)CCNC(=O)c7cc(NC(=O)c8cc(NC(=O)c9cc(NC(=O)CCNC(=O)c%10cc(NC(=O)c%11cc(NC(=O)c%12nccn%12C)cn%11C)cn%10C)cn9C)cn8C)cn7C)cn6C)cn5C)cn4C)cn3C)cn2C)cn1C` [Polyamide 1020, ImPPβPPPγNH2PPPβPPPβTa]: the “episomal DNA content by Southern blot” value in the data set with HPV episomal DNA is reported as “expected decrease in episomal DNA content”. For the same compound, the IC50 in the data set with HPV 16 [1] (setting [6]) was more than 1 µM; in the data set with HPV31, 0.1 to 1 µM.

Take `CN(CCCN)CCCNC(=O)CCNC(=O)c1cc(NC(=O)c2cc(NC(=O)c3cc(NC(=O)c4cc(NC(=O)CCNC(=O)c5cc(NC(=O)c6cc(NC(=O)CCCNC(=O)c7cc(NC(=O)c8cc(NC(=O)c9cc(NC(=O)CCNC(=O)c%10cc(NC(=O)c%11cc(NC(=O)c%12nccn%12C)cn%11C)cn%10C)cn9C)cn8C)cn7C)cn6C)cn5C)cn4C)cn3C)cn2C)cn1C` [Polyamide 1028, ImPPβPPPγPPβPPPPβTa]: the “HPV 16 episomal DNA rebound after withdrawal” value in the data set on HPV 16 [3] is recorded as “recovery does not approach control levels for at least two weeks”. For the same compound, in data set [4], the CC50 is more than 300 µM. Also, the IC50 with HPV18 was 0.1 to 1 µM; in the data set with HPV 16 [1] (setting [6]), 0.1 to 1 µM; in the data set on HPV 16 [1] (read-out: IC50 against HPV 16), 0.1 µM; in the data set with HPV31, 0.1 to 1 µM. The “HPV episomes by QPCR” value in the data set on HPV 16 [1] (concentrations as low as 5 μM) is recorded as “undetectable levels”. The “effect on absolute HPV 16 DNA levels” value with HPV 16 [1] is recorded as “nearly complete elimination of detectable viral DNA”.

Consider `CN(CCCN)CCCNC(=O)CCNC(=O)c1cc(NC(=O)c2cc(NC(=O)c3cc(NC(=O)CCNC(=O)c4cc(NC(=O)c5cc(NC(=O)c6cc(NC(=O)CCNC(=O)c7cc(NC(=O)c8cc(NC(=O)[C@H](N)CCNC(=O)c9cc(NC(=O)c%10cc(NC(=O)CCNC(=O)c%11cc(NC(=O)c%12nc(NC(=O)c%13cc(NC(=O)CCNC(=O)c%14cc(NC(=O)c%15cc(NC(=O)c%16nccn%16C)cn%15C)cn%14C)cn%13C)cn%12C)cn%11C)cn%10C)cn9C)cn8C)cn7C)cn6C)cn5C)cn4C)cn3C)cn2C)cn1C` [Polyamide 1037, ImPPβPIPβPPγNH2PPβPPPβPPPβTa], for which the IC50 with HPV18 was not above 0.1 µM; in the data set on HPV 16 [1] (setting [6]), 0.1 to 1 µM; in the data set with HPV31, not above 0.1 µM. For the same compound, in the data set on HPV 16 [1], the “effect on HPV viral DNA” value is “dramatic reduction of viral DNA levels”. Further, the “effect on absolute HPV 16 DNA levels” value in the data set with HPV 16 [1] is reported as “nearly complete elimination of detectable viral DNA”. For the same compound, in data set [2], the “effect on cell viability” value is given as “little impact on cell viability”.

In the case of `CC[C@@]1(O)C(=O)OCc2c1cc1n(c2=O)Cc2cc3ccccc3nc2-1` [camptothecin], the CC50 at 24 h in data set [5] (H4IIE rat hepatoma cells) stood at 5 µM.

As for `Cn1cc(NC(=O)c2cc(NC(=O)c3cc(NC=O)cn3C)cn2C)cc1C(=O)NCCC(=N)N` [distamycin A, reference compound], the “effect on HPV viral DNA” value in the data set on HPV 16 [1] is given as “only effective against HPV DNA at high concentrations”. Besides, the “effect on cell viability” value in data set [2] is on record as “also affect cell viability”.

Take `C=C(C)[C@H]1Cc2c(ccc3c2O[C@@H]2COc4cc(OC)c(OC)cc4[C@@H]2C3=O)O1` [rotenone]: the CC50 at 24 h in [5] is 0.49 µM.

A word on the IC50: it is the concentration needed to halve the response being measured.
